Patent US10208081B2, “Bile acid derivatives as FXR/TGR5 agonists and methods of use thereof” (Enanta Pharmaceuticals, Inc., priority 2014, dated 2019)

Molecular target: human FXR (NR1H4) (Homo sapiens (Human), UniProt Q96RI1)
Test: Human FXR (NR1H4) Assay (Gal4 promoter driven luciferase reporter, Indigo Bioscience kit IB00601)
Format: cell-based
Details: for Efficacy (%): efficacy normalized to CDCA set as 100%; for EC50: potency ranges
Procedure, shortened: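 CHO reporter cells expressing human FXR with Gal4-driven, FXR-responsive luciferase treated with compound doses (0.2% DMSO) for 22 hours at 37° C. Luciferase luminescence then measured as surrogate of FXR activation for potency and efficacy.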

human FXR (NR1H4), sequence (Q96RI1 whole entry, the tested form may be a part): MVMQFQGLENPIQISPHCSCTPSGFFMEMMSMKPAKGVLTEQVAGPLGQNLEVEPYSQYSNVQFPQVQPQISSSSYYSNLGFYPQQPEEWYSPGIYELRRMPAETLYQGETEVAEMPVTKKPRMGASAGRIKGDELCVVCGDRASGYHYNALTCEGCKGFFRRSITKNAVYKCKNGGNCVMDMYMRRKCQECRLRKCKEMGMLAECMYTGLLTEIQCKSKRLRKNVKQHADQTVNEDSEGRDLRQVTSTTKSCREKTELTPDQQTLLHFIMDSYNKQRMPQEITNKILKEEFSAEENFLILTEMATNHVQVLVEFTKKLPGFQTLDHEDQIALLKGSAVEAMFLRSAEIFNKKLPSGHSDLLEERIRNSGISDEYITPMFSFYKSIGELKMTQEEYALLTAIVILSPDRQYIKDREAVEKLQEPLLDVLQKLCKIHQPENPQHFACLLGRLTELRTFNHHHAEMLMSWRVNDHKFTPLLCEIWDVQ

SMILES	Efficacy (%)	EC50
CC[C@H]1[C@@H](O)[C@@H]2[C@H](CC[C@]3(C)[C@@H]([C@H](C)CNC(=O)NS(=O)(=O)c4ccc(N5CCCCC5)cc4)CC[C@@H]23)[C@@]2(C)CC[C@@H](O)C[C@@H]12 [Example 118]	267%	< 100 nM
CC[C@H]1[C@@H](O)[C@@H]2[C@H](CC[C@]3(C)[C@@H]([C@H](C)CCNC(=O)NS(=O)(=O)c4ccc(N(C)C)cc4)CC[C@@H]23)[C@@]2(C)CC[C@@H](O)C[C@@H]12 [Example 119]	363%	< 100 nM
CC[C@H]1[C@@H](O)[C@@H]2[C@H](CC[C@]3(C)[C@@H]([C@H](C)CCNC(=O)NS(=O)(=O)c4ccc(C(=O)O)cc4)CC[C@@H]23)[C@@]2(C)CC[C@@H](O)C[C@@H]12 [Example 120]	198%	1000 to 10000 nM
CC[C@H]1[C@@H](O)[C@@H]2[C@H](CC[C@]3(C)[C@@H]([C@H](C)CNC(=O)NS(=O)(=O)c4cccc(N5CCCCC5)c4)CC[C@@H]23)[C@@]2(C)CC[C@@H](O)C[C@@H]12 [Example 121]	199%	100 to 1000 nM
CC[C@H]1[C@@H](O)[C@@H]2[C@H](CC[C@]3(C)[C@@H]([C@H](C)CCNC(=O)NS(=O)(=O)C(C)(C)CO)CC[C@@H]23)[C@@]2(C)CC[C@@H](O)C[C@@H]12 [Example 122]	121%	1000 to 10000 nM
CC[C@H]1[C@@H](O)[C@@H]2[C@H](CC[C@]3(C)[C@@H]([C@H](C)CCNC(=O)NS(=O)(=O)c4ccc(C(=O)OC)cc4)CC[C@@H]23)[C@@]2(C)CC[C@@H](O)C[C@@H]12 [Example 123]	271%	100 to 1000 nM
CC[C@H]1[C@@H](O)[C@@H]2[C@H](CC[C@]3(C)[C@@H]([C@H](C)CCNC(=O)NS(N)(=O)=O)CC[C@@H]23)[C@@]2(C)CC[C@@H](O)C[C@@H]12 [Example 124]	195%	1000 to 10000 nM
CC[C@H]1[C@@H](O)[C@@H]2[C@H](CC[C@]3(C)[C@@H]([C@H](C)CCNC(=O)NS(=O)(=O)NC)CC[C@@H]23)[C@@]2(C)CC[C@@H](O)C[C@@H]12 [Example 125]	256%	1000 to 10000 nM
CC[C@H]1[C@@H](O)[C@@H]2[C@H](CC[C@]3(C)[C@@H]([C@H](C)CCNC(=O)NS(=O)(=O)NC)CC[C@@H]23)[C@@]2(C)CC[C@@H](OC(=O)C(F)(F)F)C[C@@H]12 [Example 126]	238%	1000 to 10000 nM
CC[C@H]1[C@@H](O)[C@@H]2[C@H](CC[C@]3(C)C([C@H](C)CCNS(=O)(=O)c4ccccc4)CC[C@@H]23)[C@@]2(C)CC[C@@H](O)C[C@@H]12 (stereo partly drawn) [Example 130]	146%	1000 to 10000 nM
CC[C@H]1[C@@H](O)[C@@H]2[C@H](CC[C@]3(C)[C@@H]([C@H](C)CCNS(=O)(=O)O)CC[C@@H]23)[C@@]2(C)CC[C@@H](O)C[C@@H]12 [Example 131]	8%	1000 to 10000 nM
CC[C@H]1[C@@H](O)[C@@H]2[C@H](CC[C@]3(C)[C@@H]([C@H](C)CCNS(=O)(=O)CC(=O)O)CC[C@@H]23)[C@@]2(C)CC[C@@H](O)C[C@@H]12 [Example 132]	7%	1000 to 10000 nM
CC[C@H]1[C@@H](O)[C@@H]2[C@H](CC[C@]3(C)[C@@H]([C@H](C)CCNS(=O)(=O)c4cccc(N5CCCCC5)c4)CC[C@@H]23)[C@@]2(C)CC[C@@H](O)C[C@@H]12 [Example 133]	80%	> 10000 nM
CC[C@H]1[C@@H](O)[C@@H]2[C@H](CC[C@]3(C)[C@@H]([C@H](C)CCNS(=O)(=O)c4ccc(C(C)(C)C)s4)CC[C@@H]23)[C@@]2(C)CC[C@@H](O)C[C@@H]12 [Example 134]	19%	–
CC[C@H]1[C@@H](O)[C@@H]2[C@H](CC[C@]3(C)[C@@H]([C@H](C)CCCNS(=O)(=O)[O-])CC[C@@H]23)[C@@]2(C)CC[C@@H](O)C[C@@H]12.[Na+] [Example 135]	4%	1000 to 10000 nM
CC[C@H]1[C@@H](O)[C@@H]2[C@H](CC[C@]3(C)[C@@H]([C@H](C)CCCCNS(=O)(=O)C(C)(C)C)CC[C@@H]23)[C@@]2(C)CC[C@@H](O)C[C@@H]12 [Example 136]	159%	1000 to 10000 nM
CC[C@H]1[C@@H](O)[C@@H]2[C@H](CC[C@]3(C)[C@@H]([C@H](C)CCCCNS(=O)(=O)c4ccccc4)CC[C@@H]23)[C@@]2(C)CC[C@@H](O)C[C@@H]12 [Example 137]	105%	1000 to 10000 nM
CC[C@H]1[C@@H](O)[C@@H]2[C@H](CC[C@]3(C)[C@@H]([C@H](C)CCNS(=O)(=O)C(C)(C)C(=O)O)CC[C@@H]23)[C@@]2(C)CC[C@@H](O)C[C@@H]12 [Example 138]	2%	1000 to 10000 nM
CC[C@H]1[C@@H](O)[C@@H]2[C@H](CC[C@]3(C)[C@@H]([C@H](C)CCNS(=O)(=O)C(C)(C)C)CC[C@@H]23)[C@@]2(C)CC[C@@H](O)C[C@@H]12 [Example 139]	138%	1000 to 10000 nM
CC[C@H]1[C@@H](O)[C@@H]2[C@H](CC[C@]3(C)[C@@H]([C@H](C)CNS(=O)(=O)CCC(=O)O)CC[C@@H]23)[C@@]2(C)CC[C@@H](O)C[C@@H]12 [Example 140]	1%	–
CC[C@H]1[C@@H](O)[C@@H]2[C@H](CC[C@]3(C)[C@@H]([C@H](C)CCNS(=O)(=O)CCC(=O)O)CC[C@@H]23)[C@@]2(C)CC[C@@H](O)C[C@@H]12 [Example 141]	16%	1000 to 10000 nM
CC[C@H]1[C@@H](O)[C@@H]2[C@H](CC[C@]3(C)[C@@H]([C@H](C)CNS(=O)(=O)c4cccc(N5CCCCC5)c4)CC[C@@H]23)[C@@]2(C)CC[C@@H](O)C[C@@H]12 [Example 142]	7%	–
CC[C@H]1[C@@H](O)[C@@H]2[C@H](CC[C@]3(C)[C@@H]([C@H](C)CNS(=O)(=O)C(C)(C)C)CC[C@@H]23)[C@@]2(C)CC[C@@H](O)C[C@@H]12 [Example 143]	6%	–
